Experimental findings from US11091749B2, “Deimmunized lysostaphin and methods of use” (TRUSTEES OF DARTMOUTH COLLEGE, priority 2014, dated 2021) are described below.

Read-outs that look alike come from different tables or passages of the source. Where no end group is shown, it is not given here.

One data set concerns the target T1, DRB1*0101 (Homo sapiens, UniProt P01903+P01911, A100R/D57E/F55L/F60I/F76Y/I96L/L162R/M171V/P40L/Q125E/R42F/V115G/Y59C).
T1 construct: purchased Benaroya Research Institute (Seattle, Wash.)
The experiment in a line: MHC II competition binding assay. How it is done:
(§1) MHC Binding Assays. MHC II competition binding assays were performed using a 384-well high throughput assay as previously described (Salvat, et al. (2014) supra). Binding assays were performed for the eight alleles: DRB1*0101, 0301, 0401, 0701, 0801, 1101, 1301, and 1501. Briefly, 100 nM biotinylated control peptides composed of known peptide antigens for each MHC II allele were incubated in polypropylene 384-well plates with 50 nM purified recombinant MHC II protein and serial dilutions of LST or variant peptide fragments (100 μM to 10 nM). Peptide-MHC II complexes were captured from equilibrated solutions using the conformation specific anti-HLA-DR antibody L243 coated on high binding ELISA plates. Bound control peptide was quantified using the DELFIA streptavidin-Europium conjugate and time resolved fluorescence (SpectraMax Gemini Fluorescence Microplate Reader).

In the next data set the target is T2, DRB1*0301 (Homo sapiens, UniProt P01903+P01911, A100K/A102G/A103R/A169T/F55Y/I96L/K41T/L162R/M171V/P40S/Q125H/Q178H/Q39Y/R42S/S66N/T106N/T262R/W38E/Y61H).
T2 construct: purchased Benaroya Research Institute (Seattle, Wash.)
Description: MHC II competition binding assay. How it is done: as §1

In a further data set the target is T3, DRB1*0401 (Homo sapiens, UniProt P01903+P01911, A100K/A169T/F76Y/I96L/K127E/L162R/M171V/N62H/P40V/Q125Y/R42H/S133A/S149N/S66Y/V115G/V209L/W38E).
T3 construct: purchased Benaroya Research Institute (Seattle, Wash.)
Description: MHC II competition binding assay. The protocol:
as §1

A further data set deals with DRB1*0701 (Homo sapiens, UniProt P01903+P01911, A100R/A102G/A103Q/D57E/D86V/E43K/F76Y/K127E/L162R/M171V/P40G/Q125H/Q99D/R33Q/R42Y/R54Q/S133A/S66F/T210M/V115G/Y107V/Y59L/Y89S). Description: MHC II competition binding assay. The protocol:
as §1

The target in the next data set is DRB1*0801 (Homo sapiens, UniProt P01903+P01911, A100R/A103L/A169T/D86S/F76Y/H45Y/I96F/K41T/L162R/M171V/P40S/Q125H/Q178H/Q39Y/Q99D/R218S/R42G/S66Y/V115G/W38E). The experiment in a line: MHC II competition binding assay. How it is done: as §1
In the next data set the target is DRB1*1101 (Homo sapiens, UniProt P01903+P01911, A100R/A169T/A87E/I96F/K41T/L162R/M171V/P40S/Q125H/Q178H/Q39Y/Q99D/R42S/S66Y/T262R/V115G/W38E). The experiment in a line: MHC II competition binding assay. The protocol: as §1
A further data set has as its target DRB1*1301 (Homo sapiens, UniProt P01903+P01911, A100E/A169T/K41T/L162R/M171V/P40S/Q125H/Q178H/Q39Y/Q99D/R42S/S66N/T262R/W38E/Y61H). The experiment in a line: MHC II competition binding assay. How it is done: as §1
The next data set addresses T4, DRB1*1501 (Homo sapiens, UniProt P01903+P01911).
T4 construct: purchased Benaroya Research Institute (Seattle, Wash.)
Description: MHC II competition binding assay. How it is done:
as §1, with “MHC II competition binding assays were performed using a 384-well high throughput assay as previously described (Salvat, et al. (2014) supra). Binding assays were performed for the eight alleles: DRB1*0101, 0301, 0401, 0701, 0801, 1101, 1301, and 1501.” left out

The test system of a further data set is S. aureus cells. The experiment in a line: Lytic assay using purified protein (SYTOX kinetic assay). In kind it is cell-based, Staphylococcus aureus. The following applies: 200 ng purified enzyme. The protocol:
S. aureus cells were grown either to mid-log or to saturation in tryptic soy broth (TSB) at 37° C. with shaking. The cells were harvested by centrifugation and washed once in phosphate buffered saline (PBS: 2.7 mM KCl, 1.5 mM KH2PO4, 8.9 mM Na2HPO4, 136.9 mM NaCl, pH 7.4). The assay was performed in 96-well, black, clear bottom plates from Greiner Bio-One (Monroe, N.C.). The final (250 μl) reaction was composed of 10 μl of P. pastoris culture supernatant, S. aureus cells at OD600=1.5, and 5 μM SYTOX Green (Thermo Fisher Scientific; Waltham, Mass.), all in PBS. Data were collected using SPECTRAMAX GEMINI Fluorescence Microplate Reader (Molecular Devices; Sunnyvale, Calif.) using an excitation/emission of 504/523 nm, and rates were determined from the slope of the steepest linear portion of the trace. Each assay was performed with 500 ng of commercially-sourced lysostaphin (ssLys) as an internal control.
The activity of purified lysostaphin variants was examined using the SYTOX kinetic assay as previously described in Chapter 2, Section 3.2.6. 200 ng of purified enzyme (instead of culture supernatant) was used in each reaction.

The test system of the next data set is S. aureus SA113. The experiment in a line: MIC assay. In kind it is cell-based, Staphylococcus aureus. The following applies: S. aureus SA113, purified enzyme. The protocol: The MICs of wild-type lysostaphin and its variants were determined by adding 2-fold serial dilutions of enzymes into wells of a polypropylene 96-well plate (Costar 3879) containing ˜40,000 S. aureus SA113 (or S. aureus 6445, 3425-1, 3425-3) cells in Muller Hinton broth (BD) supplemented with 2% NaCl and 0.1% bovine serum albumin, yielding a total volume of 100 μl. Plates were grown overnight at 37° C. with shaking at 900 rpm on an Orbit P4 orbital shaker (Labnet; Edison, N.J.). […] The assay was performed in triplicate for each enzyme.

Data set [1] is described as follows: Thermostability by differential scanning fluorimetry. The class given is physicochemical. The following applies: SYPRO Orange, PBS. The protocol: The relative thermostability of the lysostaphin variants was determined by differential scanning fluorimetry, as previously described (Niesen, et al. (2007) Nat. Protocols 2:2212-2221). Proteins and SYPRO Orange were diluted in PBS (final concentrations of 100 μg/ml and 5× in 20 μl reaction volume, respectively), and fluorescence was quantified at 1-degree increments from 25 to 94° C. using an Applied Biosystems ABI 7500 fast real-time PCR system. The reactions were performed using PCR Plates for Fast Thermocyclers (VWR; Radnor, Pa.). Fluorescence was quantified using the preset TAMRA parameters. Melting temperatures were determined by data analysis with the ‘DSF Analysis v3.0.xlsx’ EXCEL sheet and GraphPad Prism v.6.02 software.

For orientation: IC50 means the midpoint of a concentration-inhibition curve. Regarding HLHFQRMVGDFGNPTAQ [Peptide 212224], the IC50 at DRB1*0101 was 0.18 µM; at DRB1*0301 it was 116 µM; on DRB1*0401, 5.55 µM; at DRB1*0701, > 250 µM; at DRB1*0801 it was > 250 µM; on DRB1*1101, 13.4 µM. Also, the values for the half-inhibitory concentration (IC50) on DRB1*1301 and on DRB1*1501 were > 250 µM and 24.2 µM, respectively.
For HLHFQRMVGDFSNPTAQ [Peptide 21_22], the IC50 was < 0.01 µM at DRB1*0101; 77.4 µM at DRB1*0301; < 0.01 µM on DRB1*0401; > 250 µM at DRB1*0701; 210 µM on DRB1*0801; 28.5 µM on DRB1*1101. For the same molecule, the IC50 is > 250 µM at DRB1*1301 and < 0.01 µM at DRB1*1501.
Regarding HLHFQTMVNDFSNPTAQ [Peptide 18_22], the half-maximal inhibitory concentration (IC50) is < 0.01 µM at DRB1*0101; 28.2 µM at DRB1*0301; < 0.01 µM on DRB1*0401; 111 µM on DRB1*0701; > 250 µM on DRB1*0801; < 0.01 µM at DRB1*1101. Further, the IC50 on DRB1*1301 was > 250 µM; at DRB1*1501, < 0.01 µM.
One may read the MIC as the smallest concentration in the dilution series that meets the test's criterion for growth inhibition. Turning to “Flex 14: lysostaphin variant I41E, S122D; two mutation design shared between rigid and flexible designs”, in the data set on S. aureus cells, the “% Wild-Type Activity” value is reported as 69%. For the same molecule, in the data set with S. aureus SA113, the minimum inhibitory concentration (MIC) was 0.0833 µg/mL. The Tm in [1] is 58.6 °C.
As for HLHFQTMVNDFGNPTAQ [Peptide 182224], the IC50 at DRB1*0101 was 7.43 µM; at DRB1*0301 it was 133 µM; at DRB1*0401, 7.52 µM; on DRB1*0701, > 250 µM; at DRB1*0801, > 250 µM; on DRB1*1101, 14.1 µM. Besides, the IC50 is > 250 µM on DRB1*1301 and 0.42 µM on DRB1*1501.
HLHFQRMVGSFSNPTAQ [Peptide N121G]: the IC50 on DRB1*0101 (DRB1*0101, read-out: IC50) was < 0.01 µM; on DRB1*0301 (DRB1*0301, read-out: IC50), > 250 µM; on DRB1*0401 (DRB1*0401, read-out: IC50), 6.13 µM; at DRB1*0701 (DRB1*0701, read-out: IC50), 17.4 µM; at DRB1*0801 (DRB1*0801, read-out: IC50), > 250 µM; at DRB1*1101 (DRB1*1101, read-out: IC50) it was 6.41 µM. Also, the IC50 was > 250 µM at DRB1*1301 (DRB1*1301, read-out: IC50) and < 0.01 µM at DRB1*1501.

B1: Flex 8: lysostaphin variant N12G, I41E, L83M, I99Q, N121G, S122D (protein, UniProt P10547 248-493, looked up, variant N12G I41E L83M I99Q N121G S122D)
Lysostaphin: AATHEHSAQWLGNYKKGYGYGPYPLGINGGMHYGVDFFMNEGTPVKAISSGKIVEAGWSNYGGGNQIGLIENDGVHRQWYMHMSKYNVKVGDYVKAGQQIGWSGSTGYSTAPHLHFQRMVGDFSNSTAQDPMPFLKSAGYGKAGGTVTPTPNTGWKTNKYGTLYKSESASFTPNTDIITRTTGPFRSMPQSGVLKAGQTIHYDEVMKQDGHVWVGYTGNSGQRIYLPVRTWNKSTNTLGVLWGTIK
Turning to B1, in the data set with S. aureus cells, the “% Wild-Type Activity” value is recorded as 60%. In the data set on S. aureus SA113, this molecule displayed a minimal inhibitory concentration (MIC) of 0.2083 µg/mL. Besides, in [1], the Tm worked out at 52.9 °C.

B2: Flex 1: lysostaphin variant I41E, I99Q, S122D (SEQ ID NO:32) (protein)
chain: AATHEHSAQWLNNYKKGYGYGPYPLGINGGMHYGVDFFMNEGTPVHAISSGKIVEAGWSNYGGGNQIGLIENDGVHRQWYMHLSKYNVKVGDYVKAGQIIGWSGSTGYSTAPHLHFQTMVNDFGNPTAQDPMPFLKSAGYGKAGGTVTPTPNTGWKTNKYGTLYKSESASFTPNTDIITRTTGPFRSMPQSGVLKAGQTIHYDEVMKQDGHVWVGYTGNSGQRIYLPVRTWNKSTNTLGVLWGTIK
In the case of B2, the “% Wild-Type Activity” value in the data set with S. aureus cells is reported as 63%. Further, the MIC in the data set with S. aureus SA113 stood at 0.0833 µg/mL. Further, the Tm in data set [1] turned out to be 55.4 °C.

B3: Flex 6: lysostaphin variant N12G, I41E, I99Q, N121G, S122D (protein, UniProt P10547 248-493, looked up, variant N12G I41E I99Q N121G S122D)
Lysostaphin: AATHEHSAQWLGNYKKGYGYGPYPLGINGGMHYGVDFFMNEGTPVKAISSGKIVEAGWSNYGGGNQIGLIENDGVHRQWYMHLSKYNVKVGDYVKAGQQIGWSGSTGYSTAPHLHFQRMVGDFSNSTAQDPMPFLKSAGYGKAGGTVTPTPNTGWKTNKYGTLYKSESASFTPNTDIITRTTGPFRSMPQSGVLKAGQTIHYDEVMKQDGHVWVGYTGNSGQRIYLPVRTWNKSTNTLGVLWGTIK
B3: in the data set with S. aureus cells, the “% Wild-Type Activity” value is listed as 58%. In the data set on S. aureus SA113, the MIC was found to be 0.2083 µg/mL. Besides, the Tm in data set [1] worked out at 54.1 °C.

B4: Flex 10: lysostaphin variant N12G, I41E, N121G, S122D (protein, UniProt P10547 248-493, looked up, variant N12G I41E N121G S122D)
Lysostaphin: AATHEHSAQWLGNYKKGYGYGPYPLGINGGMHYGVDFFMNEGTPVKAISSGKIVEAGWSNYGGGNQIGLIENDGVHRQWYMHLSKYNVKVGDYVKAGQIIGWSGSTGYSTAPHLHFQRMVGDFSNSTAQDPMPFLKSAGYGKAGGTVTPTPNTGWKTNKYGTLYKSESASFTPNTDIITRTTGPFRSMPQSGVLKAGQTIHYDEVMKQDGHVWVGYTGNSGQRIYLPVRTWNKSTNTLGVLWGTIK
With B4, the “% Wild-Type Activity” value in the data set on S. aureus cells worked out at 62%. Also, in the data set with S. aureus SA113, the minimum inhibitory concentration (MIC) came to 0.0729 µg/mL. Further, in [1], the Tm stood at 57.5 °C.
